Two molecules from US6562993B1, “Preservative compounds” (ISP Investments Inc., priority 2002, dated 2003) can be followed below.

Common to all, as to assay: Minimum Inhibitory Concentration (MIC) Test, serial dilution
Holding throughout (assay type): cell-based

Assay [1] concerns Burkholderia cepacia ATCC 25416. As to conditions: B. cepacia; weight percent of active ingredients; propylene glycol solvent. Here is the method:
(§1) The Minimum Inhibitory Concentration (MIC) Test is an in vitro serial dilution procedure to assess antimicrobial activity. The MIC of a substance is the minimum concentration that will inhibit the growth of test organisms. Two species each of bacteria and fungi were included in the evaluation.
(§2) Cultiloop™ transfer cultures were used, and the bacteria were cultured on Brain Heart Infusion agar for 24 hours at 37° C. A saline suspension of each bacterial species was prepared and standardized on the spectrophotometer to the organism inoculum concentration. The yeast culture (Candida) was grown on a slant of Saboraud Dextrose agar for 48 hours at 27° C., and the slant was then washed with saline to prepare the inoculum. The mold culture (Aspergillus) was incubated for 7-10 days at 27° C. until sporulation occurred. The mold inoculum was prepared by washing the mature slant and harvesting the spores after filtration through sterile gauze.
(§3) The results are summarized in the Table below, where the concentrations refer to the weight percents of active ingredients.

Assay [2] relates to Candida albicans ATCC 10231. As to conditions: C. albicans; weight percent of active ingredients; propylene glycol solvent. Here is the method:
as §1, §2, §3

The test system of assay [3] is Staphylococcus aureus ATCC 6538. Conditions: S. aureus; weight percent of active ingredients; propylene glycol solvent. As to the method:
as §1, §2, §3

In assay [4] the test system is Aspergillus niger ATCC 16404. Conditions: A. niger; weight percent of active ingredients; propylene glycol solvent. Here is the method:
as §1, §2, §3

Consider `CC(Br)(C#N)CCC#N` (stereo not shown) [Compound II, 2-bromo-2-methylglutaronitrile], for which the “MIC Cidal” value in assay [1] is <0.05%; in assay [2] it was <0.05%; in assay [3], 0.10%; in assay [4] it was 0.10%. For the same molecule, the “MIC Static” value in assay [1], in assay [2], in assay [3] and in assay [4] was <0.05% throughout.
Turning to `N#CCCC(Br)(C#N)CBr` (stereo not shown) [Merguard ®, 1,2-dibromo-2,4-dicyanobutane], the “MIC Cidal” value in assay [1], in assay [2], in assay [3] and in assay [4] was <0.05% throughout. For the same molecule, the “MIC Static” value in assay [1], in assay [2], in assay [3] and in assay [4] was <0.05% throughout.
